For the assay, the system named is BDF1 mice, B16 melanoma ip, median survival T/C. In words: NCI In Vivo Anticancer Drug Screen. Data for tumor model B16 Melanoma (intraperitoneal) in B6D2F1 (BDF1) mice. As to conditions: endpoint: median survival time, higher = longer survival. The method in brief:
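Antitumor activity is assessed in mice bearing a transplanted tumor, with survival or tumor size compared against vehicle-dosed controls and expressed as T/C.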

[1] abbreviates: dose: 50.0 mg/kg/injection, schedule: Q01DX009 (ip), vehicle: Klucel (hydroxypropylcellulose) (HPC).
[2] abbreviates: dose: 100.0 mg/kg/injection, schedule: Q01DX009 (ip), vehicle: Klucel (hydroxypropylcellulose) (HPC).
Setting [3] is: dose: 200.0 mg/kg/injection, schedule: Q01DX009 (ip), vehicle: Klucel (hydroxypropylcellulose) (HPC).
Where [4] appears, read: dose: 12.5 mg/kg/injection, schedule: Q01DX009 (ip), vehicle: Klucel (hydroxypropylcellulose) (HPC).
Setting [5] is: dose: 25.0 mg/kg/injection, schedule: Q01DX009 (ip), vehicle: Klucel (hydroxypropylcellulose) (HPC).
Where [6] appears, read: dose: 400.0 mg/kg/injection, schedule: Q01DX009 (ip), vehicle: Klucel (hydroxypropylcellulose) (HPC).

“And” between values parts separate entries of the source, which are not always exact repeats. Equal entries are not always repeated. Inconclusive results and toxic doses are left out. Numbered stars: 1 amine (or outer) side, 2 acyl side, 3 side chain; on linkers, the order of the positions; unused ones are H or OH. Peptide text beside a SMILES is read from it. γGlu = O=C(O)[CH](CCC(=O)[*:2])N[*:1]

In the case of `CCCCC[C@H](O)/C=C/[C@@H]1[C@@H](C/C=C\CCCC(=O)O)[C@@H](O)C[C@H]1O`, the T/C (dose: 0.25 mg/kg/injection, schedule: Q#A X020 (ip), vehicle: saline with Tween-80) was 109 % of control; the T/C (dose: 1.0 mg/kg/injection, schedule: Q#A X020 (ip), vehicle: saline with Tween-80) is 100 % of control; the T/C (dose: 2.0 mg/kg/injection, schedule: Q#A X020 (ip), vehicle: saline with Tween-80) was 110 % of control; the T/C (dose: 10.0 mg/kg/injection, schedule: Q04DX002 (ip), vehicle: saline) is 113 % of control; the T/C (dose: 20.0 mg/kg/injection, schedule: Q04DX002 (ip), vehicle: saline) is 95 % of control; the T/C (dose: 40.0 mg/kg/injection, schedule: Q04DX002 (ip), vehicle: saline) is 108 % of control. The T/C reads like this: (dose: 80.0 mg/kg/injection, schedule: Q04DX002 (ip), vehicle: saline) 108 % of control; (dose: 160.0 mg/kg/injection, schedule: Q04DX002 (ip), vehicle: saline) 97 % of control; (dose: 320.0 mg/kg/injection, schedule: Q04DX002 (ip), vehicle: saline) 97 % of control.

On to `N#CCCCc1ccccc1`, for which the T/C was 112 % of control under setting [1] and 106 % of control under setting [2].

As for `BrCCCC1CCCCC1`, the T/C is 92 % of control under setting [1], 100 % of control under setting [2] and 92 % of control under setting [3].

`Cc1c(N=CN(C)C)c(=O)n(-c2ccccc2)n1C`: the T/C by setting is: (dose: 97.0 mg/kg/injection, schedule: Q04DX003 (ip), vehicle: Klucel (hydroxypropylcellulose) (HPC)) 97 % of control; (dose: 187.5 mg/kg/injection, schedule: Q04DX003 (ip), vehicle: Klucel (hydroxypropylcellulose) (HPC)) 105 % of control; (dose: 375.0 mg/kg/injection, schedule: Q04DX003 (ip), vehicle: Klucel (hydroxypropylcellulose) (HPC)) 87 % of control.

For the compound `O=NN(CCF)C(=O)NC1C(O)CCCC1O` (stereo not drawn), the T/C (dose: 1.88 mg/kg/injection, schedule: Q01DX001 (ip), vehicle: saline) is 121 % of control; the T/C (dose: 7.5 mg/kg/injection, schedule: Q01DX001 (ip), vehicle: saline) is 199 % of control; the T/C (dose: 15.0 mg/kg/injection, schedule: Q01DX001 (ip), vehicle: saline) is 212 % of control; the T/C (dose: 30.0 mg/kg/injection, schedule: Q01DX001 (ip), vehicle: saline) was 263 % of control; the T/C (dose: 60.0 mg/kg/injection, schedule: Q01DX001 (ip), vehicle: saline) is 226 % of control.

On to `CC(=O)O[C@@H]1CO[C@H]2O[C@H]3[C@@H](C(C=O)=C[C@H](O)[C@@H]4C5=C(C(C)C)CC[C@]5(C)CC[C@@]34C)[C@@]2(O)C1=O`, for which the T/C by setting is: (dose: 0.75 mg/kg/injection, schedule: Q01DX009 (ip), vehicle: Klucel (hydroxypropylcellulose) (HPC)) 94 % of control; (dose: 3.12 mg/kg/injection, schedule: Q01DX009 (ip), vehicle: Klucel (hydroxypropylcellulose) (HPC)) 100 % of control; (dose: 6.25 mg/kg/injection, schedule: Q01DX009 (ip), vehicle: Klucel (hydroxypropylcellulose) (HPC)) 89 % of control; under setting [4], 86 % of control.

Consider `O=c1c2ccccc2[nH]c(=S)n1C1CCCCC1`, for which the T/C runs as follows: under setting [2], 90 % of control; under setting [3], 90 % of control.

For the compound `CNc1ccc(/C=C2\C=Cc3ccccc32)cc1`, the T/C was 104 % of control (dose: 12.5 mg/kg/injection, schedule: Q01DX009 (ip), vehicle: gum acacia); 109 % of control under setting [5]; 91 % of control (dose: 25.0 mg/kg/injection, schedule: Q01DX009 (ip), vehicle: gum acacia); 112 % of control under setting [1]; 102 % of control (dose: 50.0 mg/kg/injection, schedule: Q01DX009 (ip), vehicle: gum acacia).

For `O=C1NC(c2c(Cl)cccc2Cl)Nc2ccccc21` (stereo not drawn), the T/C by setting is: under setting [2], 96 % of control; under setting [3], 103 % of control; under setting [6], 90 % of control.

Take `NNC(=O)c1ccc(-c2ccccc2)cc1`: the T/C by setting is: (dose: 12.5 mg/kg/injection, schedule: Q01DX009 (ip), vehicle: other) 93 % of control; (dose: 25.0 mg/kg/injection, schedule: Q01DX009 (ip), vehicle: other) 95 % of control; (dose: 50.0 mg/kg/injection, schedule: Q01DX009 (ip), vehicle: other) 100 % of control; (dose: 100.0 mg/kg/injection, schedule: Q01DX009 (ip), vehicle: other) 100 % of control.

For the compound `CCN(CC)P(=O)(N1CC1C)N1CC1C` (stereo not drawn), the T/C by setting is: (dose: 9.3 mg/kg/injection, schedule: Q01DX009 (ip), vehicle: saline) 123 % of control; (dose: 18.7 mg/kg/injection, schedule: Q01DX009 (ip), vehicle: saline) 112 % of control; (dose: 37.5 mg/kg/injection, schedule: Q01DX009 (ip), vehicle: saline) 99 % of control.

`COc1ccccc1OCC(O)COC(N)=O` (stereo not drawn): the T/C was 94 % of control under setting [5]; 91 % of control under setting [1]; 105 % of control under setting [2]; 100 % of control under setting [3]; 105 % of control under setting [6].

For `CC12CC(C(=O)O)C3(O)CC(C)(C1)CC(C)(C2)C3` (stereo not drawn) (tested in a mixture with another compound), the T/C runs as follows: under setting [4], 97 % of control and 101 % of control; under setting [5], 93 % of control and 107 % of control; under setting [1], 94 % of control and 96 % of control; under setting [2], 96 % of control and 103 % of control; under setting [3], 94 % of control and 98 % of control.

For `NC(CCC(=O)NC(CCC(=O)O)C(=O)NC(CCC(=O)O)C(=O)O)C(=O)O` (stereo not drawn) (γGlu-Glu-Glu-OH; configuration not given here), the T/C by setting is: (dose: 50.0 mg/kg/injection, schedule: Q01DX009 (ip), vehicle: saline) 92 % of control; (dose: 100.0 mg/kg/injection, schedule: Q01DX009 (ip), vehicle: saline) 96 % of control; (dose: 200.0 mg/kg/injection, schedule: Q01DX009 (ip), vehicle: saline) 89 % of control.

Take `C[CH2][Sn]([CH2]C)([CH2]C)[O]C(=O)CO`: the T/C is 97 % of control (dose: 1.56 mg/kg/injection, schedule: Q01DX009 (ip), vehicle: saline) and 87 % of control (dose: 3.13 mg/kg/injection, schedule: Q01DX009 (ip), vehicle: saline).

Values taken from PubChem BioAssay AID192 (DTP/NCI, 2004).
